Source: the supplement of paper PMC10307832

What was measured:
Experiment in all cases: relative viability (nuclei count vs DMSO), 5 days (fraction); higher = more cells survive
EMC-BAC-2 = system: EMC-BAC-2
Summary of the method: (§1)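 Cells from lung cancer lines were seeded into 1536-well plates and, one day later, dosed by pin tool. Treatments were either a single drug or a fixed dose of an anchor drug with five library-drug doses (not always all listed) in √10 steps. After 5 days, nuclei were stained in a one-step fixation (final 0.05% Triton X-100, 1% formaldehyde, 1 ug/ml Hoechst) and counted on 4× images, and relative viability is the treated-to-vehicle nuclei ratio, as the median of duplicate plates.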

EPLC-272H = system: EPLC-272H
Summary of the method: as §1

H3255 = system: H3255
Summary of the method: as §1

HOP-62 = system: HOP-62
Summary of the method: as §1

LCLC-97TM1 = system: LCLC-97TM1
Summary of the method: as §1

LXF-289 = system: LXF-289
Summary of the method: as §1

NCI-H1563 = system: NCI-H1563
Summary of the method: as §1

NCI-H1734 = system: NCI-H1734
Summary of the method: as §1

NCI-H1915 = system: NCI-H1915
Summary of the method: as §1

NCI-H1993 = system: NCI-H1993
Summary of the method: as §1

NCI-H2009 = system: NCI-H2009
Summary of the method: as §1

NCI-H2023 = system: NCI-H2023
Summary of the method: as §1

NCI-H2085 = system: NCI-H2085
Summary of the method: as §1

NCI-H2126 = system: NCI-H2126
Summary of the method: as §1

NCI-H2347 = system: NCI-H2347
Summary of the method: as §1

NCI-H322M = system: NCI-H322M
Summary of the method: as §1

NCI-H647 = system: NCI-H647
Summary of the method: as §1

NCI-H661 = system: NCI-H661
Summary of the method: as §1

NCI-H727 = system: NCI-H727
Summary of the method: as §1

PC-14 = system: PC-14
Summary of the method: as §1

SK-LU-1 = system: SK-LU-1
Summary of the method: as §1

SW 1573 = system: SW 1573
Summary of the method: as §1

O=c1cc(N2CCOCC2)oc2c(-c3cccc4c3sc3ccccc34)cccc12 + COc1cc2c(Oc3ccc(NC(=O)C4(C(=O)Nc5ccc(F)cc5)CC4)cc3F)ccnc2cc1OCCCN1CCOCC1 [Foretinib] (partner 0.25 µM)
relative viability (EMC-BAC-2; first compound 0.01 µM): 1.01 | relative viability (EMC-BAC-2; first compound 0.03162 µM): 0.995 | relative viability (EMC-BAC-2; first compound 0.1 µM): 0.99 | relative viability (EMC-BAC-2; first compound 0.3162 µM): 0.983 | relative viability (EMC-BAC-2; first compound 1 µM): 0.978 | relative viability (EPLC-272H; first compound 0.01 µM): 0.607 | relative viability (EPLC-272H; first compound 0.03162 µM): 0.667 | relative viability (EPLC-272H; first compound 0.3162 µM): 0.734 | relative viability (EPLC-272H; first compound 1 µM): 0.688 | relative viability (H3255; first compound 0.01 µM): 0.82 | relative viability (H3255; first compound 0.03162 µM): 0.952 | relative viability (H3255; first compound 0.1 µM): 0.826 | relative viability (H3255; first compound 0.3162 µM): 0.83 | relative viability (H3255; first compound 1 µM): 0.943 | relative viability (HOP-62; first compound 0.01 µM): 1.1 | relative viability (HOP-62; first compound 0.03162 µM): 1.17 | relative viability (HOP-62; first compound 0.1 µM): 1.11 | relative viability (HOP-62; first compound 0.3162 µM): 1.14 | relative viability (HOP-62; first compound 1 µM): 1.16 | relative viability (LCLC-97TM1; first compound 0.01 µM): 0.905 | relative viability (LCLC-97TM1; first compound 0.03162 µM): 0.926 | relative viability (LCLC-97TM1; first compound 0.1 µM): 0.937 | relative viability (LCLC-97TM1; first compound 0.3162 µM): 0.897 | relative viability (LCLC-97TM1; first compound 1 µM): 0.92 | relative viability (LXF-289; first compound 0.01 µM): 0.969 | relative viability (LXF-289; first compound 0.03162 µM): 0.984 | relative viability (LXF-289; first compound 0.1 µM): 1 | relative viability (LXF-289; first compound 0.3162 µM): 0.97 | relative viability (LXF-289; first compound 1 µM): 0.965 | relative viability (NCI-H1563; first compound 0.01 µM): 0.913 | relative viability (NCI-H1563; first compound 0.03162 µM): 0.833 | relative viability (NCI-H1563; first compound 0.1 µM): 0.895 | relative viability (NCI-H1563; first compound 0.3162 µM): 0.901 | relative viability (NCI-H1563; first compound 1 µM): 0.888 | relative viability (NCI-H1734; first compound 0.01 µM): 0.851 | relative viability (NCI-H1734; first compound 0.03162 µM): 1.03 | relative viability (NCI-H1734; first compound 0.1 µM): 0.894 | relative viability (NCI-H1734; first compound 0.3162 µM): 0.837 | relative viability (NCI-H1734; first compound 1 µM): 0.78 | relative viability (NCI-H1915; first compound 0.01 µM): 1.12 | relative viability (NCI-H1915; first compound 0.03162 µM): 1.1 | relative viability (NCI-H1915; first compound 0.1 µM): 1.16 | relative viability (NCI-H1915; first compound 0.3162 µM): 1.11 | relative viability (NCI-H1915; first compound 1 µM): 1.06 | relative viability (NCI-H1993; first compound 0.01 µM): 0.681 | relative viability (NCI-H1993; first compound 0.03162 µM): 0.845 | relative viability (NCI-H1993; first compound 0.1 µM): 0.878 | relative viability (NCI-H1993; first compound 0.3162 µM): 0.765 | relative viability (NCI-H1993; first compound 1 µM): 0.748 | relative viability (NCI-H2009; first compound 0.01 µM): 1.19 | relative viability (NCI-H2009; first compound 0.03162 µM): 1.21 | relative viability (NCI-H2009; first compound 0.1 µM): 1.23 | relative viability (NCI-H2009; first compound 0.3162 µM): 1.22 | relative viability (NCI-H2009; first compound 1 µM): 1.11 | relative viability (NCI-H2023; first compound 0.01 µM): 0.719 | relative viability (NCI-H2023; first compound 0.03162 µM): 0.803 | relative viability (NCI-H2023; first compound 0.1 µM): 0.763 | relative viability (NCI-H2023; first compound 0.3162 µM): 0.873 | relative viability (NCI-H2023; first compound 1 µM): 0.636 | relative viability (NCI-H2085; first compound 0.01 µM): 0.96 | relative viability (NCI-H2085; first compound 0.03162 µM): 0.941 | relative viability (NCI-H2085; first compound 0.1 µM): 0.961 | relative viability (NCI-H2085; first compound 0.3162 µM): 0.912 | relative viability (NCI-H2085; first compound 1 µM): 0.944 | relative viability (NCI-H2126; first compound 0.01 µM): 1.16 | relative viability (NCI-H2126; first compound 0.03162 µM): 1.22 | relative viability (NCI-H2126; first compound 0.1 µM): 1.29 | relative viability (NCI-H2126; first compound 0.3162 µM): 1.2 | relative viability (NCI-H2126; first compound 1 µM): 1.24 | relative viability (NCI-H2347; first compound 0.01 µM): 0.963 | relative viability (NCI-H2347; first compound 0.03162 µM): 0.761 | relative viability (NCI-H2347; first compound 0.1 µM): 0.675 | relative viability (NCI-H2347; first compound 0.3162 µM): 0.855 | relative viability (NCI-H2347; first compound 1 µM): 1.05 | relative viability (NCI-H322M; first compound 0.01 µM): 0.91 | relative viability (NCI-H322M; first compound 0.03162 µM): 0.903 | relative viability (NCI-H322M; first compound 0.1 µM): 0.888 | relative viability (NCI-H322M; first compound 0.3162 µM): 0.917 | relative viability (NCI-H322M; first compound 1 µM): 0.849 | relative viability (NCI-H647; first compound 0.01 µM): 1.24 | relative viability (NCI-H647; first compound 0.03162 µM): 1.34 | relative viability (NCI-H647; first compound 0.1 µM): 1.34 | relative viability (NCI-H647; first compound 0.3162 µM): 1.24 | relative viability (NCI-H647; first compound 1 µM): 1.08 | relative viability (NCI-H661; first compound 0.01 µM): 0.996 | relative viability (NCI-H661; first compound 0.03162 µM): 1.05 | relative viability (NCI-H661; first compound 0.1 µM): 1.03 | relative viability (NCI-H661; first compound 0.3162 µM): 0.947 | relative viability (NCI-H661; first compound 1 µM): 1.03 | relative viability (NCI-H727; first compound 0.01 µM): 1.05 | relative viability (NCI-H727; first compound 0.03162 µM): 0.822 | relative viability (NCI-H727; first compound 0.1 µM): 0.908 | relative viability (NCI-H727; first compound 0.3162 µM): 1 | relative viability (NCI-H727; first compound 1 µM): 0.865 | relative viability (PC-14; first compound 0.01 µM): 0.957 | relative viability (PC-14; first compound 0.03162 µM): 0.965 | relative viability (PC-14; first compound 0.1 µM): 0.994 | relative viability (PC-14; first compound 0.3162 µM): 0.987 | relative viability (PC-14; first compound 1 µM): 0.948 | relative viability (SK-LU-1; first compound 0.01 µM): 0.893 | relative viability (SK-LU-1; first compound 0.03162 µM): 0.918 | relative viability (SK-LU-1; first compound 0.1 µM): 0.789 | relative viability (SK-LU-1; first compound 0.3162 µM): 0.834 | relative viability (SK-LU-1; first compound 1 µM): 0.768 | relative viability (SW 1573; first compound 0.01 µM): 0.537 | relative viability (SW 1573; first compound 0.03162 µM): 0.982 | relative viability (SW 1573; first compound 0.1 µM): 0.87 | relative viability (SW 1573; first compound 0.3162 µM): 0.87 | relative viability (SW 1573; first compound 1 µM): 1.07
